One block for each molecule: values may come before it.
How the values were obtained:
Capan2 tumor xenografts = assay: Growth of human pancreatic tumor xenografts in SCID mice; format: in vivo; conditions: for % Tumor Growth Inhibition: Capan2-D01, QD, Treatment Duration 56; for tumor growth inhibition: Capan2
Experimental: (§1) Female SCID mice were implanted subcutaneously with HPAC or Capan2 tumor cells (human pancreatic carcinoma harboring mutant KRAS gene). When the tumor volume reached ˜150 mm^3, mice were block randomized to different treatment groups (n=8 mice/group). Mice received AKT inhibitor, Compound B, at 10 or 30 mg/kg, once daily (QD). MEK inhibitor, Compound A, was administered at 0.1, 0.3 and 1.0 mg/kg, once daily (QD) alone or at 0.1 and 0.3 mg/kg once daily in combination with AKT inhibitor. Mice were weighed and tumors measured by calipers twice weekly. Treatment was continued till the tumor volume reached >1000 mm^3. Tumor volumes were calculated using the formula: tumor volume=(Length×Width^2)/2. The percentage of tumor growth inhibition was calculated on each day of tumor measurement using the formula: 100×[1−(average growth of the compound-treated tumors/average growth of vehicle-treated control tumors)]. Data is plotted as mean±sem for tumor volume for each group.

HPAC tumor xenografts = assay: as above; format: in vivo; conditions: for % Tumor Growth Inhibition: QD; for tumor growth inhibition: HPAC
Experimental: as §1

SW900 = assay: Cell line proliferation study; format: cell-based, human; conditions: SW900, lung; for IC50: Homo sapiens, 72 hours, read-out: gIC50
Experimental: (§2) In a separate study, combination drug tests with Compounds A and B were conducted using a panel of cell lines from human colon cancers (n=26), lung cancers (n=15) and pancreatic cancers (n=6). Cell lines were obtained from commercial vendors (ATCC and DSMZ). Cell lines were grown in RPMI-1640 supplemented with 2 mM glutamine, 1 mM sodium pyruvate and 10% fetal bovine serum (except for Capan-1 and HuP-T4 which were grown with 20% fetal bovine serum) and maintained at 37° C. and 5% CO2 in a humid incubator. Assays were performed in 384 well microtiter plates with optimum seeding densities for each cell line.
(§3) The test compounds were prepared as 10 mM stocks in 100% DMSO. Further dilutions of the compounds were made in DMSO. Compound A was diluted horizontally in a separate 96 well microtiter plate in rows D-G using a 3-fold dilution series for 10 dilution points. Compound B was similarly diluted horizontally in a 96 well microtiter plate in rows B-E using a 3-fold dilution series for 10 dilution points.
(§4) The two compounds were combined using equal volumes from each drug plate into cell culture media. […] Both Compound A and Compound B were individually titrated in rows B and C (for Compound B) and rows F and G (for Compound A) of the merged drug plate.
(§5) A 1:10 dilution of the drugs was performed in cell culture media prior to addition to the cells.
(§6) The final concentration range for the test compounds was 250 to 0.013 nM for Compound A and 1000 to […] for Compound B. The positive control consisted of culture media with DMSO at 0.1% and cells. The negative control consisted of culture media with DMSO at 0.1%. The cell lines were incubated at 37° C., 5% CO2 in humid air for 72 hours. Cell proliferation was measured using the CellTiter Glo (Promega) reagent according to the manufacturer's protocol. The plates are treated with CellTiter Glo solution and are analyzed for RLU (relative light units) using a Molecular Devices SpectraMax M5 plate reader.
(§7) The percent intensity values were used in model 205 of XLfit (IDBS, Inc.) in Microsoft Excel to calculate gIC50 values using a 4 parameter logistical fit. The midpoint of the growth window (the gIC50) falls half way between the number of cells at the time of compound addition (T=0) and the growth of control cells treated with DMSO at 72 hrs. The number of cells at time zero (T0) is divided from the intensity value at the bottom of the response curve (Ymin) to generate a measure for cell death (Ymin/T0). A value below 1 for Ymin/T0 indicates stronger potency to induce cell death with the treatment when compared to higher values.
(§8) 1. Excess over Highest Single Agent (EOHSA)—This was calculated as described above (Borisy et al, 2003; FDA 21 CFR 300.50) 2. Bliss synergy—A second criterion often used to determine combination synergy is evaluating the excess inhibition over Bliss independence or “additivity” (Bliss and Mexico, 1939). The model assumes a combined response of the two compounds independently using the following:
(§9) Where Ea is the effect (or percent inhibition) of Compound A and Eb is the effect of Compound B. The resulting effect of the combination of the two compounds is compared to their predicted additivity by Bliss and a synergy score is generated for each dose along the response curve. 3. Combination Index (CI)—A third criterion traditionally used for the evaluation of synergy is Combination Index (CI) derived from the Chou and Talalay (1984). The following equation is a model used for compounds that behave with different mechanisms of action (mutually non-exclusive formula). This was calculated as described above.
(§10) For EOHSA and Bliss Synergy measures, a score is generated for each dose along the response curve. These scores reflect the percentage over the highest agent (EOHSA) or percentage greater than Bliss additivity, depending on which metric is being interpreted. […]

YAPC = assay: Cell line proliferation study; format: cell-based, human; conditions: pancreas; for IC50: Homo sapiens, 72 hours, read-out: gIC50
Experimental: as §2, §3, §4, §5, §6, §7, §8, §9, §10

WiDr = assay: Cell line proliferation study; format: cell-based, human; conditions: colon; for IC50: Homo sapiens, 72 hours, read-out: gIC50
Experimental: as §2, §3, §4, §5, §6, §7, §8, §9, §10

T84 = assay: Cell line proliferation study; format: cell-based, human; conditions: T84, colon; for IC50: Homo sapiens, 72 hours, read-out: gIC50
Experimental: as §2, §3, §4, §5, §6, §7, §8, §9, §10

SW1990 = assay: Cell line proliferation study; format: cell-based, human; conditions: SW1990, pancreas; for IC50: Homo sapiens, 72 hours, read-out: gIC50
Experimental: as §2, §3, §4, §5, §6, §7, §8, §9, §10

LS174T = assay: Cell line proliferation study; format: cell-based, human; conditions: colon; for IC50: Homo sapiens, 72 hours, read-out: gIC50
Experimental: as §2, §3, §4, §5, §6, §7, §8, §9, §10

KM12 = assay: Cell line proliferation study; format: cell-based, human; conditions: KM12, colon; for IC50: Homo sapiens, 72 hours, read-out: gIC50
Experimental: as §2, §3, §4, §5, §6, §7, §8, §9, §10

SW480 = assay: Cell line proliferation study; format: cell-based, human; conditions: SW480, colon; for IC50: Homo sapiens, 72 hours, read-out: gIC50
Experimental: as §2, §3, §4, §5, §6, §7, §8, §9, §10

- IC50 (SW900): 15 nM
- IC50 (SW1990): 94 nM
- IC50 (SW480): 326 nM
Compound: CC(=O)Nc1cccc(-n2c(=O)n(C3CC3)c(=O)c3c(Nc4ccc(I)cc4F)n(C)c(=O)c(C)c32)c1 [Compound A, N-{3-[3-cyclopropyl-5-(2-fluoro-4-iodo-phenylamino)-6,8-dimethyl-2,4,7-trioxo-3,4,6,7-tetrahydro-2H-pyrido[4,3-d]pyrimidin-1-yl]phenyl}acetamide]
- % Tumor Growth Inhibition (Capan2 tumor xenografts; Compound A 0.1 mg/kg po): 74%
- % Tumor Growth Inhibition (Capan2 tumor xenografts; Compound A 0.3 mg/kg po): 90%
- % Tumor Growth Inhibition (Capan2 tumor xenografts; Compound A 1 mg/kg po): 104%
- tumor growth inhibition (Capan2 tumor xenografts; 0.1 mg/kg): 70%
- tumor growth inhibition (Capan2 tumor xenografts; 0.3 mg/kg): 87%
- tumor growth inhibition (Capan2 tumor xenografts; 1.0 mg/kg): 104%
- % Tumor Growth Inhibition (HPAC tumor xenografts; HPAC-D01, Compound A 0.1 mg/kg po, Treatment Duration 75): 38%
- % Tumor Growth Inhibition (HPAC tumor xenografts; HPAC-D01, Compound A 0.3 mg/kg po, Treatment Duration 75): 60%
- % Tumor Growth Inhibition (HPAC tumor xenografts; HPAC-D01, Compound A 1 mg/kg po, Treatment Duration 75): 91%
- % Tumor Growth Inhibition (HPAC tumor xenografts; HPAC-D02, Compound A 0.1 mg/kg po, Treatment Duration 74): 41%
- % Tumor Growth Inhibition (HPAC tumor xenografts; HPAC-D02, Compound A 0.3 mg/kg po, Treatment Duration 74): 65%
- % Tumor Growth Inhibition (HPAC tumor xenografts; HPAC-D02, Compound A 1 mg/kg po, Treatment Duration 74): 89%
- tumor growth inhibition (HPAC tumor xenografts; 0.1 mg/kg QD): ~40%
- tumor growth inhibition (HPAC tumor xenografts; 0.3 mg/kg QD): ~60%
- tumor growth inhibition (HPAC tumor xenografts; 1 mg/kg QD): ~90%
- Ymin/T0 (SW900): −5.9
- IC50 (YAPC): > 250 nM
- Ymin/T0 (YAPC): 59.4
- IC50 (WiDr): 1.85 nM
- Ymin/T0 (WiDr): 3.94
- IC50 (T84): 139 nM
- Ymin/T0 (T84): 12.44
- Ymin/T0 (SW1990): 17.1
- IC50 (LS174T): 81.4 nM
- Ymin/T0 (LS174T): 18.26
- IC50 (KM12): 28.7 nM
- Ymin/T0 (KM12): 19.1
- Ymin/T0 (SW480): 29.37

- IC50 (SW900): > 1000 nM
- IC50 (SW1990): > 1000 nM
- IC50 (SW480): > 1000 nM
Compound: Cn1ncc(Cl)c1-c1cc(C(=O)N[C@H](CN)Cc2ccc(F)c(F)c2)oc1Cl [Compound B, N-{(1S)-2-amino-1-[(3,4-difluorophenyl)methyl]ethyl}-5-chloro-4-(4-chloro-1-methyl-1H-pyrazol-5-yl)-2-furancarboxamide]
- % Tumor Growth Inhibition (Capan2 tumor xenografts; Compound B 10 mg/kg po): 22%
- % Tumor Growth Inhibition (Capan2 tumor xenografts; Compound B 30 mg/kg po): 26%
- tumor growth inhibition (Capan2 tumor xenografts; at both 10 and 30 mg/kg doses): 27-30%
- % Tumor Growth Inhibition (HPAC tumor xenografts; HPAC-D01, Compound B 10 mg/kg po, Treatment Duration 75): 11%
- % Tumor Growth Inhibition (HPAC tumor xenografts; HPAC-D01, Compound B 30 mg/kg po, Treatment Duration 75): 40%
- % Tumor Growth Inhibition (HPAC tumor xenografts; HPAC-D02, Compound B 10 mg/kg po, Treatment Duration 74): 15%
- % Tumor Growth Inhibition (HPAC tumor xenografts; HPAC-D02, Compound B 30 mg/kg po, Treatment Duration 74): 31%
- tumor growth inhibition (HPAC tumor xenografts; 10 mg/kg QD, two independent studies): 11-15%
- tumor growth inhibition (HPAC tumor xenografts; 30 mg/kg QD, two independent studies): 31-40%
- Ymin/T0 (SW900): 47.3
- IC50 (YAPC): > 1000 nM
- Ymin/T0 (YAPC): 55.2
- IC50 (WiDr): 700 nM
- Ymin/T0 (WiDr): 5.24
- IC50 (T84): 427 nM
- Ymin/T0 (T84): −5.58
- Ymin/T0 (SW1990): 36.8
- IC50 (LS174T): > 1000 nM
- Ymin/T0 (LS174T): 19.70
- IC50 (KM12): 928 nM
- Ymin/T0 (KM12): 13.9
- Ymin/T0 (SW480): 11.87

Source: patent US20150094321A1, “COMBINATION” (GlaxoSmithKline LLC, priority 2009, published 2015)
